According to PubChem BioAssay AID1963852 (Molecular Pharmacology Branch, DTP, NCI, 2024):

Tested on: 282377-053-R-J1-PDC complex spheroid viability
Experiment: Anticancer human tumor 282377-053-R-J1-PDC patient-derived colon adenocarcinoma cell line growth inhibition [POLQ]
Details: for IC50: curve of first compound; for viability, T/C: stronger effect = lower value
In short: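 PDC + HUVEC + MSC complex spheroids; POLQ inhibitors ± partner drugs; top conc. at/near clinical Cmax, else 10 microM (SN-38 1 microM), half-log dilutions; 37 degrees C, 5% CO2.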

[1] = second compound 0.0316 µM, first compound 0.0316 µM
[2] = second compound 0.0316 µM, first compound 0.1 µM
[3] = second compound 0.0316 µM, first compound 0.316 µM
[4] = second compound 0.0316 µM, first compound 1 µM
[5] = second compound 0.0316 µM, first compound 3.16 µM
[6] = second compound 0.0316 µM, first compound 10 µM
[7] = second compound 0.1 µM, first compound 0.0316 µM
[8] = second compound 0.1 µM, first compound 0.1 µM
[9] = second compound 0.1 µM, first compound 0.316 µM
[10] = second compound 0.1 µM, first compound 1 µM
[11] = second compound 0.1 µM, first compound 3.16 µM
[12] = second compound 0.1 µM, first compound 10 µM
[13] = second compound 0.316 µM, first compound 0.0316 µM
[14] = second compound 0.316 µM, first compound 0.1 µM
[15] = second compound 0.316 µM, first compound 0.316 µM
[16] = second compound 0.316 µM, first compound 1 µM
[17] = second compound 0.316 µM, first compound 3.16 µM
[18] = second compound 0.316 µM, first compound 10 µM
[19] = second compound 1 µM, first compound 0.0316 µM
[20] = second compound 1 µM, first compound 0.1 µM
[21] = second compound 1 µM, first compound 0.316 µM
[22] = second compound 1 µM, first compound 1 µM
[23] = second compound 1 µM, first compound 3.16 µM
[24] = second compound 1 µM, first compound 10 µM
[25] = second compound 3.16 µM, first compound 0.0316 µM
[26] = second compound 3.16 µM, first compound 0.1 µM
[27] = second compound 3.16 µM, first compound 0.316 µM
[28] = second compound 3.16 µM, first compound 1 µM
[29] = second compound 3.16 µM, first compound 3.16 µM
[30] = second compound 3.16 µM, first compound 10 µM
[31] = second compound 10 µM, first compound 0.0316 µM
[32] = second compound 10 µM, first compound 0.1 µM
[33] = second compound 10 µM, first compound 0.316 µM
[34] = second compound 10 µM, first compound 1 µM
[35] = second compound 10 µM, first compound 3.16 µM
[36] = second compound 10 µM, first compound 10 µM
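Note: spheroids exposed to compounds for seven days.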
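Throughout, for viability, T/C: 100% = DMSO vehicle control viability.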

Nc1ccn(C2OC(CO)C(O)C2(F)F)c(=O)n1 (centres undefined) + Nc1ccc(C#CCN(C(=O)Cc2ncc(C(F)(F)F)cc2C(F)(F)F)c2ccc(F)cc2)nn1
IC50 (second compound 0.0316 µM): > 10 µM
IC50 (second compound 0.1 µM): > 10 µM
IC50 (second compound 0.316 µM): > 10 µM
IC50 (second compound 1 µM): > 10 µM
IC50 (second compound 3.16 µM): > 10 µM
IC50 (second compound 10 µM): > 10 µM
viability, T/C [1]: 118%
viability, T/C [2]: 128%
viability, T/C [3]: 122%
viability, T/C [4]: 83.3%
viability, T/C [5]: 84.4%
viability, T/C [6]: 68.4%
viability, T/C [7]: 101%
viability, T/C [8]: 112%
viability, T/C [9]: 109%
viability, T/C [10]: 101%
viability, T/C [11]: 80.4%
viability, T/C [12]: 65.4%
viability, T/C [13]: 115%
viability, T/C [14]: 98.8%
viability, T/C [15]: 107%
viability, T/C [16]: 95.7%
viability, T/C [17]: 83%
viability, T/C [18]: 56.2%
viability, T/C [19]: 104%
viability, T/C [20]: 93.8%
viability, T/C [21]: 108%
viability, T/C [22]: 92.6%
viability, T/C [23]: 81%
viability, T/C [24]: 67.7%
viability, T/C [25]: 115%
viability, T/C [26]: 116%
viability, T/C [27]: 117%
viability, T/C [28]: 107%
viability, T/C [29]: 108%
viability, T/C [30]: 78.8%
viability, T/C [31]: 124%
viability, T/C [32]: 120%
viability, T/C [33]: 127%
viability, T/C [34]: 124%
viability, T/C [35]: 114%
viability, T/C [36]: 90.5%

O=c1[nH]cc(F)c(=O)[nH]1 + Nc1ccc(C#CCN(C(=O)Cc2ncc(C(F)(F)F)cc2C(F)(F)F)c2ccc(F)cc2)nn1
IC50 (second compound 0.0316 µM): > 10 µM
IC50 (second compound 0.1 µM): > 10 µM
IC50 (second compound 0.316 µM): > 10 µM
IC50 (second compound 1 µM): > 10 µM
IC50 (second compound 3.16 µM): > 10 µM
IC50 (second compound 10 µM): > 10 µM
viability, T/C [1]: 115%
viability, T/C [2]: 107%
viability, T/C [3]: 142%
viability, T/C [4]: 117%
viability, T/C [5]: 89.9%
viability, T/C [6]: 95.1%
viability, T/C [7]: 107%
viability, T/C [8]: 126%
viability, T/C [9]: 109%
viability, T/C [10]: 91.6%
viability, T/C [11]: 95.1%
viability, T/C [12]: 94.5%
viability, T/C [13]: 118%
viability, T/C [14]: 98%
viability, T/C [15]: 111%
viability, T/C [16]: 99.1%
viability, T/C [17]: 87.5%
viability, T/C [18]: 90.7%
viability, T/C [19]: 106%
viability, T/C [20]: 103%
viability, T/C [21]: 116%
viability, T/C [22]: 108%
viability, T/C [23]: 112%
viability, T/C [24]: 95.1%
viability, T/C [25]: 119%
viability, T/C [26]: 122%
viability, T/C [27]: 121%
viability, T/C [28]: 118%
viability, T/C [29]: 98.8%
viability, T/C [30]: 85.9%
viability, T/C [31]: 123%
viability, T/C [32]: 128%
viability, T/C [33]: 124%
viability, T/C [34]: 134%
viability, T/C [35]: 90%
viability, T/C [36]: 111%
